Tests used:
[1] = test system: muscarinic acetylcholine (Ach) receptor; assay: off-rate at the muscarinic acetylcholine receptor; type: binding
From the text: This is known to be predictive of a long duration of action. Therefore, while a twice daily dosing at 10-100 mcg/dose may be used, if the dose is increased, such as to 100-200 mcg/dose, once daily dosing may be a suitable alternative.

[2] = test system: M1 and M3 receptors over the M2 receptors; assay: muscarinic receptor subtype selectivity and antagonist character; type: binding
[3] = test system: isolated human bronchial strips; assay: inhibition of carbachol-induced contraction of isolated human bronchial strips; type: cell-based; conditions: for offset half time: 10 nM; for onset half time to 50% inhibition of carbachol-induced contraction: single concentration of 10 nM
[4] = test system: healthy male ipratropium-responsive subjects; assay: clinical trial, single escalating inhaled doses, airway conductance (sGaw); type: in vivo, human; conditions: for increase in airway conductance (sGaw) versus placebo, significance: all doses (bromide compound 20-350 mcg via Diskus; tiotropium 18 mcg), healthy subjects
From the text: In another clinical trial using a binary mixture of the bromide compound and lactose monohydrate, the safety, tolerability, pharmacodynamics and pharmacokinetics of single escalating doses of the bromide compound (20, 60, 100, 250 and 350 mcg via the Diskus), and tiotropium (18 mcg) in 20 healthy male ipratropium-responsive subjects were compared.

[5] = test system: male and female ipratropium-responsive COPD subjects; assay: clinical study, single inhaled doses, FEV1; type: in vivo, human
Procedure: A third clinical study assessed the safety, tolerability, pharmacodynamics and pharmacokinetics of single inhaled doses of the bromide compound (20, 50 and 100 mcg via Diskus), and tiotropium (18 mcg) in 31 male and female ipratropium-responsive COPD subjects.
Mean FEV1 values peaked at 2 hours and decreased consistently to 24 hours for each dose.

[6] = human clinical trial, bronchodilation and onset of action; type: in vivo
[7] = stability of formulation with magnesium stearate; type: physicochemical; conditions: addition of magnesium stearate in the formulation, under conditions tested

| SMILES | off-rate at the muscarinic acetylcholine (Ach) receptor [1] | muscarinic receptor antagonist character [2] | reversibility of antagonism [2] | selectivity for the M1 and M3 receptors over the M2 receptors [2] [fold] | offset half time [3] [min] | onset half time to 50% inhibition of carbachol-induced contraction [3] [min] | increase in sGaw compared with placebo ([4]; 20 mcg dose, after 24 hours) [%] | increase in airway conductance (sGaw) versus placebo, significance [4] | FEV1 adjusted mean difference versus placebo ([5]; 20 mcg, 12 hours) [mL] | FEV1 adjusted mean difference versus placebo ([5]; 20 mcg, 24 hours) [mL] | FEV1 adjusted mean difference versus placebo ([5]; 50 mcg, 12 hours) [mL] | FEV1 adjusted mean difference versus placebo ([5]; 50 mcg, 24 hours) [mL] | FEV1 adjusted mean difference versus placebo ([5]; 100 mcg, 12 hours) [mL] | FEV1 adjusted mean difference versus placebo ([5]; 100 mcg, 24 hours) | Mean FEV1 versus placebo, significance ([5]; all doses (20, 50, 100 mcg), each time point over 24 hours, COPD subjects) | time of peak mean FEV1 ([5]; each dose (20, 50, 100 mcg)) [h] | onset of action in human clinical trial ([6]; compared with tiotropium) | bronchodilator efficacy in human clinical trial ([6]; human, in vivo) | stabilization of the product on stability [7] |
| --- | --- | --- | --- | --- | --- | --- | --- | --- | --- | --- | --- | --- | --- | --- | --- | --- | --- | --- | --- |
| C[N+]1(C)[C@@H]2CC[C@H]1C[C@@H](CC(C#N)(c1ccccc1)c1ccccc1)C2.[Br-] [bromide compound, (Endo)-3-(2-cyano-2,2-diphenyl-ethyl)-8,8-dimethyl-8-azonia-bicyclo[3.2.1]octane bromide] | slow | high-affinity, pan-active, competitive and reversible | partially reversible antagonist | 10 | 195 | 25 | 16 | statistically significantly greater increases | 241 | 135 | 288 | 136 | 305 | above 200 mL | statistically significantly higher than placebo | 2 | faster onset of action than tiotropium | effective long-acting anti-muscarinic bronchodilator | – |
| C[N+]1(C)C2CCC1CC(CC(C#N)(c1ccccc1)c1ccccc1)C2 (stereo not drawn) [Compound (I), (Endo)-3-(2-cyano-2,2-diphenyl-ethyl)-8,8-dimethyl-8-azonia-bicyclo[3.2.1]octane] | – | – | – | – | – | – | – | – | – | – | – | – | – | – | – | – | – | – | some improvement in stabilization |
| C[N+]1(C)[C@@H]2C[C@@H](OC(=O)C(O)(c3cccs3)c3cccs3)C[C@H]1[C@@H]1O[C@@H]12 [tiotropium, tiotropium bromide, reference compound] | – | – | – | – | 314 | 10 | – | statistically significantly greater increases | – | – | – | – | – | – | – | – | – | – | – |

Source: patent US20100329996A1, “Novel Combination of Therapeutic Agents” (Glaxo Group Limited, priority 2007, published 2010)
